From ChEMBL document CHEMBL2216755, “Ranking high affinity ligands of low solubility by NMR spectroscopy” (ACS Med Chem Lett, 2011) come the findings set out here.

Test [1] concerns the target T1, Peptidyl-prolyl cis-trans isomerase A (Homo sapiens, UniProt P62937). Kind of test: Binding affinity to human cyclophilin A by intrinsic tryptophan fluorescence.
Target sequence in this assay (P62937 whole entry): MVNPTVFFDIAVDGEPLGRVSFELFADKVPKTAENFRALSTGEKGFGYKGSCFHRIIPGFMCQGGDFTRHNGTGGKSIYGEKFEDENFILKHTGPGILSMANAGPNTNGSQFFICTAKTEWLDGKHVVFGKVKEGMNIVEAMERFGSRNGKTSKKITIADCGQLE
For test [2], the target named is T1, Peptidyl-prolyl cis-trans isomerase A. Kind of test: Binding affinity to human cyclophilin A assessed as compound-enzyme complex formation at 1:1 protein to compound ratio by NMR analysis.
Target sequence in this assay (P62937 whole entry, looked up): as the sequence (P62937 whole entry) above

One may read the Kd as the equilibrium constant for the complex coming apart.

For the compound `C/C=C/C[C@@H](C)[C@@H](O)[C@H]1C(=O)N[C@@H](CC)C(=O)N(C)CC(=O)N(C)[C@@H](C(C)C)C(=O)N[C@@H](C(C)C)C(=O)N(C)[C@@H](CC(C)C)C(=O)N[C@@H](C)C(=O)N[C@H](C)C(=O)N(C)[C@@H](CC(C)C)C(=O)N(C)[C@@H](CC(C)C)C(=O)N(C)[C@@H](C(C)C)C(=O)N1C`, the Kd in test [1] was 11 nM.
As for `C/C=C/C[C@@H](C)[C@@H](O)[C@H]1C(=O)N[C@@H](CC)C(=O)N(C)CC(=O)N(C)[C@@H](CC(C)C)C(=O)N[C@@H](C(C)C)C(=O)N(C)[C@@H](CC(C)C)C(=O)N[C@@H](C)C(=O)N[C@H](C)C(=O)N(C)[C@@H](CC(C)C)C(=O)N(C)[C@@H](C(C)C)C(=O)N(C)[C@@H](C(C)C)C(=O)N1C`, the Activity in test [2] stood at 53%.
For `C/C=C/C[C@@H](C)[C@@H](O)[C@H]1C(=O)N[C@@H](CC)C(=O)N(C)[C@H](C)C(=O)N(CC)[C@@H](C(C)C)C(=O)N[C@@H](C(C)C)C(=O)N(C)[C@@H](CC(C)C)C(=O)N[C@@H](C)C(=O)N[C@H](C)C(=O)N(C)[C@@H](CC(C)C)C(=O)N(C)[C@@H](CC(C)C)C(=O)N(C)[C@@H](C(C)C)C(=O)N1C` [ALISPORIVIR], the Activity in test [2] came to 59%. The compound also yielded a Kd in test [1] of 11 nM.
